Measured values as given in a melting point compilation (Tetko et al.; mined from patent text by program, amines drawn as free bases though some values may be those of a salt).

SMILES | melting point [°C]
COc1ccc2cc(-c3ccc(C(=O)O)cc3)ccc2c1 | 288 to 289
CC1(C)CC1C(=O)NC(=CCCCCCBr)C(=O)O (stereo not given) | 151 to 153
FC(F)(F)c1n[nH]c(-c2nc3ccccc3[nH]2)n1 | 247
CON(C)S(=O)(=O)c1ccccc1S(=O)(=O)NC(=O)n1nc(OCC(F)(F)F)n(C)c1=O | 183
COC(=O)c1cc(C(=O)c2ncc3ccccn23)ccc1N | 192
NCCCNc1ccc(NCCCN)c2c1C(=O)c1c(O)ccc(O)c1C2=O | 115 to 130
CCOC(=O)C(=CNc1ccc(F)c(N2CCN(C(=O)OCC)CC2)n1)C(=O)OCC | 144 to 145
CCC(=O)CCSc1cc(C(C)(C)C)c(O)c(C(C)(C)C)c1 | 76 to 79
CC(C)(C)OC(=O)NC(C)(C)c1ccc(-c2nc(Nc3ccc(CCn4ccnc4)cc3)ncc2C#N)cc1 | 124
Cc1c(-c2ncc(Cl)cc2F)nn(C)c1C#N | 144 to 146
CC1(COCc2ccccc2)COC(C)(C(=O)N(C(N)=O)c2ccccc2)O1 (stereo not given) | 91 to 94
O=C(O)C1C(C=C(Cl)Cl)C12CCC2 (stereo not given) | 122 to 128
CN(C)C(=O)ON=C1SC(=C(C#N)C#N)SC1(C)C | 175 to 177
CN(Cc1cc(C(F)(F)F)cc(C(F)(F)F)c1)C(=O)c1c(-c2ccc(F)cc2)c2ccc(=O)n(C)c2c(=O)n1C | 210 to 212
COC1=CC2=CCC3C(CCC4(C)C(=O)CC(OC(C)=O)C34)C2(C)CC1 (stereo not given) | 209
CC(C)(CS(C)(=O)=O)NC(=O)c1c(I)cccc1C(=O)Nc1ccc(S(F)(F)(F)(F)F)cc1Cl | 196 to 198
Oc1cc(F)ccc1Oc1ccc(-c2ccco2)cc1O | 102 to 104
COc1ccc(C(=O)Nc2ccc(-c3ccc(S(C)=O)cc3)cc2)cc1CCCN(C)C (stereo not given) | 190 to 192
CCC1(CC)C(=O)ON(C(=O)c2ccccc2)C1=O | 76 to 79
Cc1ccc2ncc(Oc3c(Cl)cc(NS(=O)(=O)c4cc(C)c(Cl)cc4Cl)cc3Cl)cc2c1 | 228 to 230
CC(C)C1C(=O)N(CCl)S(=O)(=O)N1C (stereo not given) | 118 to 120
CCN(CC)C(=O)NC1CC2c3cccc4[nH]c(C#Cc5cccs5)c(c34)CC2N(C)C1 (stereo not given) | 252 to 256
Cc1ccc2c(c1)SC(C(F)(F)F)C(C(=O)O)=C2 (stereo not given) | 187 to 192

SMILES | melting point [°C]
O=Cc1cccc(Sc2ccccc2Cl)c1O | 111 to 112
NC(=O)N/N=C(/C(=O)O)c1ccc(OCCOc2ccc3ccccc3c2)cc1 | 204
COc1ccc(O)c(NC(C)=O)c1 | 156 to 157
Cc1cn(C2OC(CO)C(O)C2O)c(=S)[nH]c1=O (stereo not given) | 206 to 208
C=C(c1ccccc1)c1ccc2nc(N)n(S(=O)(=O)N(C)C)c2c1 | 201 to 202
NC1=C(c2cccc(C(F)(F)F)c2)C(=O)C(c2ccccc2)C1 (stereo not given) | 205 to 206
CCOC(=O)N1CCC(=C2c3ccc(Cl)cc3OCc3cc([N+](=O)[O-])cnc32)CC1 | 192 to 193
O=C(NCCOC1CCCCO1)c1cc([N+](=O)[O-])cc([N+](=O)[O-])c1N(CCO)CCBr (stereo not given) | 121 to 123
CCCC1NS(=O)(=O)N(COC(=O)c2c(Cl)cccc2Cl)C1=O (stereo not given) | 95 to 97
CCCCOc1ccc2c3c([nH]c2c1)CC(NC(C)=O)CC3 (stereo not given) | 182 to 184
O=C(CC1CC(O)CO1)NC1CCC(CCN2CCN(c3nccc4c3CCO4)CC2)CC1 (stereo not given) | 155
C=CCOc1cccc(C2=NNC(=O)CC2)c1 | 111 to 113
COC(=O)c1cc([N+](=O)[O-])c(Oc2cc(C)cc(C)c2)c(S(N)(=O)=O)c1 | 197 to 198
Cc1cc(C(=O)CS(C)(=O)=O)cc(C)c1N(C)C | 132 to 133
CC(C)(C)OC(=O)c1sc(NCc2ccccc2)c2c1CCCC2=O | 125 to 126
O=C1c2ccccc2C(=O)N1C1CCC(c2cc(F)c(Br)cc2F)C1 (stereo not given) | 44 to 47
Cc1cc2sc3ncc(C(=O)Nc4nnn[nH]4)c(=O)n3c2cc1C | > 300
CN(C)Cc1cccc(OCCCNc2nc3ccccc3s2)c1 | 154 to 155
Nc1ccc(S(=O)(=O)Nn2cc(-c3ccccc3)c3ccccc32)cc1 | 176 to 177
Nc1ccnc2c(F)cccc12 | 184 to 186
CC(C)(C)OC(=O)N1C[C@@H]2[C@H](F)CCC(c3ccccc3)(c3ccccc3)[C@@H]2C1 | 200
CCCC[C@H](NC(=O)[C@H](CC(C)C)NC(=O)c1ccc(F)c(F)c1F)C(=O)CSCc1ccco1 | 101 to 102
COc1ccc(NC(=O)NCC2(c3ccccc3)CCCCC2)cc1 | 155 to 157

Further lines, results first:

melting point [°C] | SMILES
165 to 166 | FC(F)(F)c1ccc(CC(=Nc2ccccc2)NC(=S)NCc2cccnc2)cc1
232 to 233 | Cn1c(=O)[nH]c(=O)n(-c2ccc(Sc3nc4ccc(Cl)cc4s3)cc2)c1=O
202 to 204 | Cc1cccc2ncc(C(=O)Nc3ccc(Cl)cc3)c(=O)n12
141 to 145 | CC1(C2CCC3C4CCC5CC=CCC5(C)C4C(O)CC32C)OCCO1 (stereo not given)
85 to 87 | O=C(O)c1cc(OCCCCCCCCCCCCOc2ccccc2)ccc1OCc1ccccc1
186 to 187 | CC(Nc1cc(Br)ccc1OCc1ccccc1)c1ccc(C(=O)O)cc1 (stereo not given)
> 250 | Cc1cc(OCC(=O)O)ccc1NC(=O)c1ccc(N2CCNCC2)cc1
272 to 276 | CC1COc2c(N3Cc4ccc(N)cc4C3)c(F)cc3c(=O)c(C(=O)O)cn1c23 (stereo not given)
58 to 60 | CC(=O)c1ccc(C)cc1N(C)C=O
165 | CCCCOc1ccc(NC(=O)N(C)c2cccc(-c3ccc(CCC(=O)O)cc3)c2)cc1
96 to 98 | COC=C(C(=O)OC)N(C)c1nc(-c2ccc(Cl)c(Cl)c2)cs1
127 | CN1CCCC(OC(=O)Nc2ccc(Br)cc2)C1 (stereo not given)
68 to 69 | CSCCN(C)C(=O)N(C)c1cnc(-c2cncc(F)c2)s1
107 | COc1ccc(C=C2C(=O)C3(C)CCC2C3(C)C)cc1OC (stereo not given)
55 to 57 | CCOC(=O)[C@@H]1CCCN1C(=O)C1=Cc2ccccc2CC1
154 to 155 | Cc1ccc(N)c(C#Cc2ccccc2)n1
217 to 218 | COC(=O)/C=C/c1ccc(-c2nc(NC(C)=O)sc2Cc2ccc(S(C)(=O)=O)cc2)cc1
68 to 69 | COc1ccc(C(O)c2ccc3cc(OC)ccc3c2)c(F)c1 (stereo not given)
170 to 173 | COC(=O)c1cccc2cc(C)[nH]c12
74 to 78 | CCOC(=S)N[C@@H](C)C(=O)O
138 to 141 | COc1c(C)c(C)c(OCc2ccccc2)c(C)c1CN(C)CCOc1cc(C)ccc1C(C)C
186 to 188 | CONC(=O)c1cc(C(=O)OC)c2cc(Cc3ccc(F)cc3)cnc2c1O
158 to 160 | CNc1cc(Br)nc(S(=O)(=O)c2ccc(N)cc2)c1
158 to 160 | O=C(NC1=Cc2cncn2CN=C1)c1ccccc1
160 to 161 | CSc1ccc(-c2nn(Cc3cccnc3)c(=O)cc2-c2ccc(F)cc2)cc1
135 to 140 | Cn1nc(-c2c(F)cccc2Cl)nc1-c1ccc(Oc2ccccc2)cc1Cl
159 to 166 | CC(NC(=O)Cc1cc(F)cc(F)c1)C(=O)NC1C(=O)NCc2cc(Cc3ccccc3)ccc21 (stereo not given)

melting point [°C] | SMILES
175 to 179 | CC(c1ccc(CCn2cnc3cc(-c4ccc(Cl)cc4)sc3c2=O)cc1)N1CCCCC1 (stereo not given)
180 to 182 | CON=Cc1ccc2c(c1)ncn2-c1cccc(-c2ccncn2)c1
242 | CCC(=O)NS(=O)(=O)c1cccc(-c2cc(-c3nc(-c4ccc(C(F)(F)F)nc4)cc(C(F)(F)F)n3)ccn2)c1
214 to 216 | CC1(C)CC(C)(c2ccc(Oc3ccc([N+](=O)[O-])cc3)cc2)c2cc(Oc3ccc([N+](=O)[O-])cc3)ccc21 (stereo not given)
137 to 138 | CN(C)C(=O)Nc1ccc(Oc2ccc3c(c2)OC(C)(C)CC3)cc1
97 to 99 | CN(C)C=C(C(=O)OC(C)(C)C)C(=O)c1ccccc1Cl
194 to 196 | CCc1cc(Oc2ccc(S(C)(=O)=O)nc2)cc2cc(C3=NCC(CC(=O)N4CCS(=O)CC4)S3)[nH]c12 (stereo not given)
267 to 268 | Cc1cc(O)ccc1-n1cc(C(=O)O)c(=O)cc1C=NN1CCOCC1
53 | c1ccc(N=C2CCCc3ccccc32)cc1
150 to 151 | NC(=S)c1ccc(CC(NC(=O)OCc2ccccc2)C(=O)NCC(=O)NCCC(=O)OCc2ccccc2)cc1 (racemic)
215 to 216 | CCOC(=O)c1cn2c(cc(Cl)c3ccc(OC)cc32)n1
163 to 165 | O=C(Nc1c(C(O)(C(F)(F)F)C(F)(F)F)ccc2ccccc12)C1CC1
148 to 150 | O=S(=O)(NC1(CO)CCCC1)c1ccc2c(Cl)cnc(Cl)c2c1
121 to 123 | COC(=O)c1cccnc1NS(=O)(=O)NC(C)C
169 to 170 | COc1cc(-c2csc(C(=N)NO)n2)cc(Cl)c1OC
122 to 124 | ClC1Cc2cc(Br)ccc2Sc2ccccc21 (stereo not given)
195 to 197 | CC(=O)NC(C#N)NC(=O)c1cc(C)cc(C)c1 (stereo not given)
179 to 181 | CC1=NC(NC(=O)Nc2cccc(C)c2)C(=O)N(CC(=O)C2CCCCC2)c2c(C)cccc21 (stereo not given)
233 to 235 | O=S1(=O)NCN(C2CCCCC2)c2ccc(Cl)cc21
161 to 162 | COc1ccc(CNC(=O)C2=C(C(=O)Nc3cc(OC4CCCC4)c(Cl)cc3F)CCCC2)cc1
142 to 146 | COc1cc(Cn2c(-c3ccc(O)cc3)c(C)c3cc(O)ccc32)ccc1OCCN1CCCCCC1
152 to 155 | Cc1cc(C)nc(NC(=O)NS(=O)(=O)c2cccc3c2CCCC3)n1
220 to 223 | Cc1cc(C)c2[nH]c(C(=O)NC(N)=S)cc2c1
238 to 240 | O=C(O)c1ccc(-n2sc(-c3ccccc3)cc2=O)cc1
195 to 197 | Cc1cc(NN)c2ccccc2n1
113 | COc1ccc(CNc2ccc(C#N)cc2F)cc1
87 to 92 | CCOC(=O)ONC(=N)COc1cc(OCC(=N)NOC(=O)OCC)c2c(C)c(Cc3ccccc3)c(=O)oc2c1
